Data: patent US20220016092A1, “METHODS FOR TREATING SYMPTOMS AND DISORDERS ASSOCIATED WITH LYSOSOMAL STORAGE DISEASES” (GENZYME CORPORATION, priority 2019, published 2022)
Values joined by “and” are separate entries in the source; they are usually repeats but may differ in a detail not shown here. Identical values can stand only once.

Columns and labels:
Type in all cases: in vivo, human
[1] = test system: GL-3, lyso-GL-3, GL-1 and GM3; assay: Clinical study in Fabry disease patients: plasma and urine glycosphingolipids; settings: 15 mg/day oral
Protocol: A three-year open-label investigation of Compound 2 in young classic Fabry disease patients was conducted in order to evaluate the long-term safety, pharmacodynamics and exploratory efficacy of Compound 2 in adult male Fabry patients. Eleven subjects enrolled in the study, and seven subjects completed all aspects of the study. All subjects were males diagnosed with classic Fabry disease confirmed by genotype and residual alpha-galactosidase activity below detection levels (9 of the 11 had nonsense mutation in the GLA gene). All subjects had lyso-GL3 levels in plasma of at least 65 ng/mL and had no prior Fabry disease-specific treatment. The median age of subject was 24 years (range 19-37).
Each sample was scored independently by 3 pathologists for the presence of GL-3 inclusions on a four-point scale, and rated as 0 (no/trace), 1 (mild), 2 (moderate), or 3 (severe) according to Eng et al., N. Engl. J. Med. 345:9-16 (2001). A single score per patient per time point was derived by taking the score rated by the majority of the three pathologists. If a majority score could not be derived, then the median score was used (resulting in some fractional scores). […] Pain scores and abdominal symptoms were analyzed at baseline and weeks 12, 26, 52, 104 and 156 using the SF-36 scoring protocol. […]

[2] = test system: adult patients with Gaucher disease Type 3; assay: Clinical study in GD-3 patients: safety and tolerability; settings: 15 mg/day + imiglucerase
Protocol: (§1) During the study patients were evaluated for safety and tolerability, CSF and plasma biomarkers (glucosylceramide, GL-1; glucosylsphingosine, lyso-GL1), pharmacokinetics, markers for systemic disease (spleen and liver volume measured by magnetic resonance imaging (MRI), platelet count, hemoglobin levels), indicia of interstitial lung disease (high resolution pulmonary computed tomography (CT)), and horizontal saccadic eye movement.

[3] = Study 1 Part 2: pharmacokinetics with and without a high-fat meal; settings: healthy men, single oral 5 mg dose
Description: Study 1 was a 2-part single-center trial in healthy adult male volunteers.
Part 1 of the study enrolled and randomized 55 healthy men (placebo, n=14; 2-, 5-, 15, 25-, 50, and 100-mg doses, n=6 each; 150-mg dose, n=5). Eight healthy men participated in Part 2.
After a 7-day washout period, participants were crossed over to the other condition.

[4] = test system: glucosylceramide (GL-1) and glucosylsphingosine (lyso-GL1) in CSF and plasma; assay: Clinical study in GD-3 patients: GL-1 and lyso-GL-1 in CSF and plasma; settings: 15 mg/day + imiglucerase; for GL-1 in CSF, percent change from baseline, Mean (n = 4) / Lyso-GL1 in CSF, percent change from baseline, Mean (n = 4): excludes Patient 5
Protocol: as §1
At baseline, the mean (±SD) GL-1 concentration in CSF was 7.1±2.8 ng/mL (range 4.4-11.1 ng/mL), while the mean (±SD) lyso-GL-1 concentration in CSF was 39.3±22.9 pg/mL (range 20.1-67.6 pg/mL). For comparison, the healthy GL-1 concentration in CSF is 4.5-5.9 ng/mL, and the healthy level of lyso-GL-1 in CSF is less than 5.0 pg/mL. […]

[5] = test system: adult patients with Gaucher disease Type 3; assay: Clinical study in GD-3 patients: horizontal and vertical saccadic eye movements; settings: 15 mg/day + imiglucerase
Protocol: as §1
Quantification of horizontal and vertical saccadic eye movements (HSEM and VSEM, respectively) was performed in all 5 patients. In the five patients, mean peak velocity (PV) of horizontal rightward 15° saccades was 50.8°/s (+/−8.1°/s) at baseline and […] (+/−12.6°/s) at Week 26; and the mean PV of horizontal leftward 15° saccades was 44.7° /s (+/−17.9°/s) at baseline and 32.3°/s (+/−15.9°/s) at Week 26. A slower velocity implies a more significant degree of neurological impairment. The mean PV of horizontal rightward 30° saccades was 77.7°/s (+/−16.4°/s) at baseline and […] (+/−24.7°/s) at Week 26; and the mean PV of horizontal leftward 30° saccades was 58.7°/s (+/−21.5°/s) at baseline and 49.9°/s (+/−8.5°/s) at Week 26. The normal range for […] horizontal saccades has previously been reported as >200°/s and >400°/s (Bremova-Ertl et al, 2018). […] As with HSEM, VSEM measurements were stable between baseline and week 26.
At 52 weeks, quantification of horizontal and vertical saccadic eye movements was performed in all six patients in a similar manner as described in section (A). However, it was determined that the methodology used to account for noise (e.g., caused by blinking or head movements) may have introduced bias into the results. The method of accounting for noise was therefore modified, and a set of control criteria were developed to assess validity of the datasets obtained by the eye movement reader.

[6] = test system: GL-3 inclusions in superficial endothelial cell capillaries; assay: Clinical study in Fabry disease patients: GL-3 inclusion volume fraction by electron microscopy; settings: 15 mg/day oral
Description: In addition to scoring GL-3 skin inclusions by light microscopy, the fraction of the volume of endothelial cell cytoplasm occupied by GL-3 inclusions was estimated using point-counting of electron microscopic images by a masked reader. Images from at least 50 superficial endothelial cell capillaries were obtained using electron microscopy at 7500× magnification. Two-sided t tests were used to evaluate differences between baseline and post-treatment values at each time point.

[7] = 4 weeks, individual Patients 1-5
[8] = 26 weeks, individual Patients 1-5 (Patient 5 reduced exposure)

## CC(C)(NC(=O)O[C@@H]1CN2CCC1CC2)c1csc(-c2ccc(F)cc2)n1 [Compound 2, (S)-quinuclidin-3-yl 2-(2-(4-fluorophenyl)thiazol-4-yl)propan-2-ylcarbamate]
[1]; 26 weeks (n = 8)
  Urine GL-3 (mg per mmol urine creatinine), change from baseline: -0.25 mg/mmol
[1]; 26 weeks (n = 9)
  Plasma GL-1, change from baseline: -3.26 µg/mL
  Plasma GL-3, change from baseline: -3.62 µg/mL
  Plasma GM3, change from baseline: -10.77 µg/mL
  Plasma lyso-GL-3, change from baseline: -30.99 ng/mL
[1]; 52 weeks (n = 7)
  Plasma GL-1, change from baseline: -3.58 µg/mL
  Plasma GL-3, change from baseline: -5.06 µg/mL
  Plasma GM3, change from baseline: -8.84 µg/mL
  Plasma lyso-GL-3, change from baseline: -37.10 ng/mL
  Urine GL-3 (mg per mmol urine creatinine), change from baseline: -0.20 mg/mmol
[1]; 104 weeks (n = 7)
  Plasma GL-1, change from baseline: -3.70 µg/mL
  Plasma GL-3, change from baseline: -6.32 µg/mL
  Plasma GM3, change from baseline: -9.92 µg/mL
  Plasma lyso-GL-3, change from baseline: -39.84 ng/mL
  Urine GL-3 (mg per mmol urine creatinine), change from baseline: -0.18 mg/mmol
[1]; 156 weeks (n = 7)
  Plasma GL-1, change from baseline: -3.23 µg/mL
  Plasma GL-3, change from baseline: -6.97 µg/mL
  Plasma GM3, change from baseline: -8.12 µg/mL
  Plasma lyso-GL-3, change from baseline: -48.13 ng/mL
  Urine GL-3 (mg per mmol urine creatinine), change from baseline: -0.18 mg/mmol
[1]; after 156 weeks
  Plasma GL-3 levels: 1.90 µg/mL
[1]; at 104 weeks (p=0.0351) and 156 weeks (p=0.0081)
  Plasma GL-3 reduction compared to agalsidase beta: significantly greater
[1]; over the 156-week study
  Drop in mean plasma GL-1 levels: 69%
  Drop in mean plasma GL-3 levels: 77%
  Drop in mean plasma GM3 levels: 60%
  Drop in mean plasma lyso-GL3 levels: 52%
[2]; 26 weeks, all 5 patients
  Treatment-emergent adverse events: no serious or lasting treatment-emergent adverse events
[2]; 52 weeks, six patients
  Severity and relatedness of treatment-emergent adverse events: mild or moderate in severity, and none of which were considered related to treatment with Compound 2 or imiglucerase
  Total treatment-emergent adverse events reported: 30
[3]
  Effect of a high-fat meal on exposure compared with fasting conditions: no effect
[3]; fed or fasting
  Median tmax: 6.00 h
[4]; 4 weeks
  GL-1 in CSF, percent change from baseline, Mean (n = 4): −64%
  Lyso-GL1 in CSF, percent change from baseline, Mean (n = 4): −32%
[4]; [7]
  GL-1 in CSF, percent change from baseline: −86% and −55% and −53% and −62% and −36%
  Lyso-GL1 in CSF, percent change from baseline: −38% and −16% and −34% and −39% and −11%
[4]; 26 weeks
  GL-1 in CSF, percent change from baseline, Mean (n = 4): −75%
  Lyso-GL1 in CSF, percent change from baseline, Mean (n = 4): −48%
[4]; [8]
  GL-1 in CSF, percent change from baseline: −86% and −78% (2×) and −58% and +4%
  Lyso-GL1 in CSF, percent change from baseline: −52% and −42% and −41% and −57% and +94%
[5]; 26-week treatment period
  Changes in HSEM: no clinically meaningful changes in HSEM
[5]; Week 26, five patients
  Mean peak velocity of horizontal leftward 15° saccades: 32.3 °/s
  Mean peak velocity of horizontal leftward 30° saccades: 49.9 °/s
[5]; between baseline and week 26
  VSEM measurements: stable
[6]; 3 months (N = 9)
  Volume fraction (volume of inclusions/total cytoplasmic volume): 0.29 ± 0.06
[6]; 3 months (N = 9), P 0.74
  Volume fraction, Change from baseline: −1.9%
[6]; 3 years (N = 6)
  Volume fraction (volume of inclusions/total cytoplasmic volume): 0.18 ± 0.03
[6]; 3 years (N = 6), P 0.001
  Volume fraction, Change from baseline: −38.7%
[6]; 6 months (N = 8)
  Volume fraction (volume of inclusions/total cytoplasmic volume): 0.23 ± 0.04
[6]; 6 months (N = 8), P 0.001
  Volume fraction, Change from baseline: −21.1%
